Assay [1] has as its target T1, phosphatase domain of human SHP2 (Homo sapiens, UniProt Q06124).
T1 construct: phosphatase domain of human SHP2 (amino acid Ala237-Ile529); 6xHis (TEV site) (N, cleaved yes); made in house; host or cells: E. coli BL21 (DE3)
The assay is described as follows: SHP2 enzymatic assay (DiFMUP), phosphatase domain. The class given is biochemical. Conditions: at up to 50 μM. Here is the method: (§1) Protein purification: The recombinant DNA for full-length human SHP2 (amino acid 1-597) or the phosphatase domain of human SHP2 (amino acid Ala237-Ile529) was cloned into a pET30 vector (Sigma #69909-3), which was modified to contain a TEV protease site after the N-terminal 6×His tag. The expression vector was transformed into E. coli BL21 (DE3) (NEB #C2527H). The protein was expressed and purified by the following procedure. Bacterial cells from a 50 mL overnight culture were inoculated in 6 L of terrific broth media. Once the E. coli culture reached an OD600 of 0.7, the temperature was lowered to 18° C. and recombinant protein expression was induced by the addition of 0.5 mM IPTG. After overnight incubation, the cells were harvested by centrifugation at […] for 45 min in a Sorvall Lynx 6000 (Thermo Fisher) centrifuge with F9-6×1000 LEX rotor. The cell pellets were stored at −80° C. until purification. […] The final product was 98% pure as determined by SDS-PAGE. The concentration of SHP2 protein was determined from the absorbance at 280 nm wavelength, using the calculated molar extinction coefficient for SHP2 protein of 72770 M^−1 cm^−1.
(§2) SHP2 enzymatic assay: Phosphatase activity of full-length human SHP2 wild-type enzyme or SHP2 phosphatase domain was measured using fluorogenic 6,8-difluoro-4-methylumbelliferyl phosphate (DiFMUP; Molecular Probes #D6567) as the substrate. […]

In assay [2] the test system is General control nonderepressible 2 kinase (GCN2). As to the kind of experiment: KINOMEscan competition binding. Also noted: species or system human. The following applies: 1 μM. The procedure: Activity of Compound (10b) (1 μM) was assessed against a panel of 419 human kinases (including a set of disease-relevant mutant variants). Assays were conducted using the KINOMEscan™ platform from DiscoverX which measures compound interaction with kinases using active site-directed competition binding assays. Displacement of ligand binding to the kinase by <35% of the control value is considered significant. Of the 419 kinases tested, only 4 kinases reached this level of displacement: Protein kinase C eta (PRKCH), 34% control; Large tumor suppressor kinase 1 (LATS1), 32% control; General control nonderepressible 2 kinase (GCN2), 21% control; and Hematopoietic Progenitor Kinase 1 (HPK1), 4.4% control.

Another assay relates to pERK in PBMC. The assay is described as follows: Phase 1/1B first-in-human study, PBMC pERK inhibition. The class given is in vivo.
For assay [3], the target named is T2, full-length human SHP2 wild-type enzyme (Homo sapiens, UniProt Q06124).
T2 construct: full-length human SHP2 (amino acid 1-597); 6xHis (TEV site) (N, cleaved yes); made in house; host or cells: E. coli BL21 (DE3)
T2 sequence (Q06124 1-597 isoform Q06124-1): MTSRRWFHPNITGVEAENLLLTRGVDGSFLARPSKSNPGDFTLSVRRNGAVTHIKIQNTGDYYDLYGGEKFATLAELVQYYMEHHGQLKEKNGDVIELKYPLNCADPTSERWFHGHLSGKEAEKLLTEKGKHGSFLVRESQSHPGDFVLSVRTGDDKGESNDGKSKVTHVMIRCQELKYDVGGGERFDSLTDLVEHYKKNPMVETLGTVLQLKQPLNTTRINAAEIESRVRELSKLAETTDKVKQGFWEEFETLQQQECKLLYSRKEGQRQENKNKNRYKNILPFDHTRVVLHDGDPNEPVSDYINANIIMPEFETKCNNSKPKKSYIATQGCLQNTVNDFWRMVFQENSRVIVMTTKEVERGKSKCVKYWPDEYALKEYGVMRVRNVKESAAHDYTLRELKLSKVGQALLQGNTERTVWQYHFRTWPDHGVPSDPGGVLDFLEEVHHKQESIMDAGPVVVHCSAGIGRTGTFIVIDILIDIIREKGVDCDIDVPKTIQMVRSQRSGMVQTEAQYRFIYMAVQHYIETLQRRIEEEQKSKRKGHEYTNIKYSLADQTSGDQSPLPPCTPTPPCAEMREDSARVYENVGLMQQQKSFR
As to the kind of experiment: SHP2 enzymatic assay (DiFMUP), full-length enzyme. The class given is biochemical. The following applies: in presence of 1 μM bistyrosylphorphorylated peptide; mean±SD, 34 independent test occasions. Here is the method: as §1, §2

The text below walks through data of US20250213563A1, “SUBSTITUTED PYRIMIDIN-4(3H)-ONES FOR USE IN TREATING CANCER” (NAVIRE PHARMA, INC., priority 2021, published 2025).

One may read the inhibition as the share of the control response that was lost under treatment. Lower therefore signals little suppression. In general, IC50 refers to the concentration that gives 50% inhibition.

“Also recorded” adds a separate entry of the source.

T1 sequence (Q06124 237-529): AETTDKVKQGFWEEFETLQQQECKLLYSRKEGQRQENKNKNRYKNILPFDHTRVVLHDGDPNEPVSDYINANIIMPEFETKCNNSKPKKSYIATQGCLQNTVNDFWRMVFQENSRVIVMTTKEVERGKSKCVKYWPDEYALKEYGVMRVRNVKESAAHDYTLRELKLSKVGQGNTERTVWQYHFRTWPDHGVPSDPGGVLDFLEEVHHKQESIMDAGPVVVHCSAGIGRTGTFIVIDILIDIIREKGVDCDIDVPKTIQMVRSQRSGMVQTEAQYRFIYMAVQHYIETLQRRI

As for `Cc1c(N2CCC3(CC2)CO[C@@H](C)[C@H]3N)nc(C)n(-c2cccc(Cl)c2Cl)c1=O` (atropisomer, axis not shown; (Ra)) [Compound (10b), 6-((3S,4S)-4-amino-3-methyl-2-oxa-8-azaspiro[4.5]decan-8-yl)-3-(Ra)-(2,3-dichlorophenyl)-2,5-dimethylpyrimidin-4(3H)-one], the “suppression of enzymatic activity of SHP2 phosphatase domain” value in assay [1] is given as “did not suppress; also recorded: does not suppress”. For the same compound, the “ligand binding, % control” value in assay [2] amounted to 21 % control. The compound also returned an inhibition at 550 mg in the assay with pERK in PBMC (Homo sapiens, PBMC, 550 mg dose level, 24 h post dose) of 90%. Moreover, the “PBMC pERK inhibition” value in the assay on pERK in PBMC (cohort 5 (550 mg), 4 hours post dose) is approximately 95%. Moreover, in assay [3], the IC50 came to 13.2 ± 10.6 nM.
